Data as given in US9241488B2, “Azole derivative, method for producing azole derivative, and intermediate compound” (KUREHA CORPORATION, priority 2011, dated 2016).
Where two headings read alike, the source gives them in different places.

Experiments:
[1] = tested on: wheat leaf blight-causing microorganisms; experiment: Anti-bacterial effect on wheat leaf blight-causing microorganisms (PDA plate, mycelial growth inhibition); format: cell-based, Septoria tritici; conditions: 1.25 mg/L in PDA plate medium, 25° C., 14 days; for inhibition at 1.25 µg/mL: 336 h, read-out: Growth inhibition grade
[2] = tested on: wheat-brown-rust-causing microorganisms; experiment: Controlling effect on wheat brown rust (spray, pot test); format: in vivo, Puccinia recondita; conditions: 1 mg/L sprayed at 1,000 L/ha, wheat NORIN No. 61, 9 to 14 days after inoculation
Method in brief: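 Two-leaf wheat (NORIN No. 61) sprayed with formulation at 1 mg/L, 1,000 L/ha, then spray-inoculated with rust spores and held 48 hours at 25° C, high humidity, then greenhouse.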

[3] = tested on: Wheat pink snow mold (Microdochium nivale); experiment: Anti-bacterial effect on various microorganisms (plate medium), M.n; format: cell-based
[4] = tested on: Rice bacterial seeding blight (Rhizopus oryzae); experiment: Anti-bacterial effect on various microorganisms (plate medium), R.o; format: cell-based
[5] = tested on: wheat brown rust-causing microorganisms; experiment: Controlling effect on wheat brown rust caused by seed treatment (pot test); format: in vivo, Puccinia recondita; conditions: 2 mg compound per 1 g wheat seeds, inoculated 21 days after seeding, evaluated 14 days after inoculation
Description: An efficacy against wheat brown rust was evaluated by performing a pot test. […] The pots were kept in a greenhouse with supplying water underneath. Twenty one days after the seeding, wheat brown rust-causing microorganisms was inoculated, and the pots were stored in a humidity chamber for 2 days. The pots were kept again in a greenhouse with supplying water underneath. Fourteen days after the inoculation, a lesion degree was evaluated, and a protective value was calculated. The protective value was calculated with use of the following formula, and was defined as a wheat brown rust protective value. Protective value=(1−lesion degree in treated plot/lesion degree in untreated plot)×100(%)

wheat [6] = experiment: Harmful effect of necrosis to wheat caused by seed treatment (pot test); format: in vivo; conditions: 2 mg compound per 1 g wheat seeds, 31 days after seeding, smaller index = smaller harmful effect
Description: Thirty one days after the seeding, a degree of necrosis (necrosis area ratio) in wheat was evaluated. By using criteria shown in Table 7, necrosis indexes were calculated on the basis of the necrosis area ratio.

wheat [7] = experiment: Growth inhibition test for wheat caused by seed treatment (pot test); conditions: 2 mg compound per 1 g wheat seeds, 36 days after seeding, larger index = smaller damage
Description: Harmful effect (growth inhibition) to wheat was evaluated by performing a pot test. Compounds (2 mg) of the present invention and a comparative compound (2 mg) were weighed, and those compounds were each dissolved in DMSO (18 μl). Chemical thus prepared were applied to wheat seeds (1 g) in a vial, and eight wheat seeds were seeded in a pot of 80 cm^2. The seeds were cultivated in a greenhouse with supplying water underneath. 36 days after the seeding, damage (growth inhibition) was evaluated.
The damage (growth inhibition) index was calculated on the basis of the following table. As the growth inhibition index becomes larger, the damage of growth inhibition caused by the treatment of the chemicals becomes smaller.

[8] = tested on: Wheat Septoria nodorum blotch microorganism (Phaeosphaeria nodorum); experiment: Anti-bacterial effect on various microorganisms (plate medium), P.n; format: cell-based
[9] = tested on: Wheat eye spot (Pseudocercoporella herpotrichoides); experiment: Anti-bacterial effect on various microorganisms (plate medium), P.h; format: cell-based
[10] = tested on: Wheat fusarium blight (Fusarium graminearum); format: cell-based
[11] = tested on: Barley loose smut (Ustilago nuda); experiment: Anti-bacterial effect on various microorganisms (plate medium), U.n; format: cell-based
[12] = tested on: Rice blast (Pyricularia oryzae); format: cell-based
[13] = tested on: Rice bakanae disease (Giberella fujikuroi); experiment: Anti-bacterial effect on various microorganisms (plate medium), G.f; format: cell-based
[14] = tested on: Alternaria blotch (Alternaria alternata); experiment: Anti-bacterial effect on various microorganisms (plate medium), A.m; format: cell-based
[15] = tested on: Sclerotinia rot (Sclerotinia sclerotiorum); experiment: Anti-bacterial effect on various microorganisms (plate medium), S.s; format: cell-based
[16] = tested on: Gray mold (Botritis cinerea); experiment: Anti-bacterial effect on various microorganisms (plate medium), B.c; format: cell-based
[17] = tested on: Cucumber fusarium wilt (Fusarium oxysporum); experiment: Anti-bacterial effect on various microorganisms (plate medium), F.c; format: cell-based
[18] = tested on: Barley leaf blotch (Rhynchosporium secalis); experiment: Anti-bacterial effect on various microorganisms (plate medium), R. sec; format: cell-based
[19] = tested on: Wheat Septoria nodorum blotch microorganism (Phaeosphaeria nodorum); experiment: Anti-bacterial effect of V′ compounds on various microorganisms (plate medium), P.n; format: cell-based; conditions: 5 mg/L
G.g = experiment: Anti-bacterial effect of V′ compounds on various microorganisms (plate medium), G.g; format: cell-based; conditions: 5 mg/L
[20] = tested on: Barley stripe (Pyrenophora graminea); experiment: Anti-bacterial effect of V′ compounds on various microorganisms (plate medium), P.g; format: cell-based; conditions: 5 mg/L
[21] = tested on: Rice blast (Pyricularia oryzae); format: cell-based; conditions: 5 mg/L
[22] = tested on: Wheat leaf blight (Septoria tritici); experiment: Anti-bacterial effect of V′ compounds on various microorganisms (plate medium), S.t; format: cell-based; conditions: 5 mg/L
[23] = tested on: Barley leaf blotch (Rhynchosporium secalis); experiment: Anti-bacterial effect of V′ compounds on various microorganisms (plate medium), R. sec; format: cell-based; conditions: 5 mg/L
[24] = tested on: Snow mold of winter wheat (Microdochium nivale); experiment: Anti-bacterial effect of V′ compounds on various microorganisms (plate medium), M.n; format: cell-based; conditions: 5 mg/L
[25] = tested on: Swollen rice seedling (Rhizopus oryzae); experiment: Anti-bacterial effect of V′ compounds on various microorganisms (plate medium), R.o; format: cell-based; conditions: 5 mg/L

SMILES: CC1(C)CC[C@H](Cc2ccc(Cl)cc2)[C@@]1(O)Cn1cncn1 (racemic) [Compound (1), reference compound]
- inhibition at 1.25 µg/mL [1]: 60 to 80%
- Protective value [2]: 3 (41 to 60)
- inhibition at 1.25 µg/mL ([3]; Microdochium nivale, 1.25 mg/L, read-out: Growth inhibition grade M.n): 20 to 40%
- inhibition at 5 µg/mL ([3]; Microdochium nivale, 5 mg/L, read-out: Growth inhibition grade M.n): > 80%
- inhibition at 1.25 µg/mL ([4]; Rhizopus arrhizus, 1.25 mg/L, read-out: Growth inhibition grade R.o): 60 to 80%
- inhibition at 5 µg/mL ([4]; Rhizopus arrhizus, 5 mg/L, read-out: Growth inhibition grade R.o): > 80%
- wheat brown rust protective value [5]: 95%
- necrosis index (wheat [6]): 1 (1% or more but less than 5%)
- damage (growth inhibition) index (wheat [7]): 2 (Less than 60% but 40% or more)

SMILES: COC[C@]1(CCl)CC[C@@H](Cc2ccc(Cl)cc2)[C@]1(O)Cn1cncn1 (racemic) [Compound I-16a, (1RS,2RS,5SR)-5-(4-chlorobenzyl)-2-chloromethyl-2-methoxymethyl-1H-[1,2,4]triazole-1-ylmethylcyclopentanol]
- Growth inhibition grade [1]: 5 (% Mycerial growth inhibition of 80% or higher)
- Protective value [2]: 4 (61 to 80)
- Growth inhibition grade P.n ([8]; 1.25 mg/L): 5 (% Mycerial growth inhibition of 80% or higher)
- Growth inhibition grade P.n ([8]; 5 mg/L): 5 (% Mycerial growth inhibition of 80% or higher)
- Growth inhibition grade P.h ([9]; 1.25 mg/L): 4 (% Mycerial growth inhibition of less than 80 to 60% or higher)
- Growth inhibition grade P.h ([9]; 5 mg/L): 5 (% Mycerial growth inhibition of 80% or higher)
- Growth inhibition grade F.g ([10]; 1.25 mg/L): 5 (% Mycerial growth inhibition of 80% or higher)
- Growth inhibition grade F.g ([10]; 5 mg/L): 5 (% Mycerial growth inhibition of 80% or higher)
- Growth inhibition grade U.n ([11]; 1.25 mg/L): 5 (% Mycerial growth inhibition of 80% or higher)
- Growth inhibition grade U.n ([11]; 5 mg/L): 5 (% Mycerial growth inhibition of 80% or higher)
- Growth inhibition grade P.o ([12]; 1.25 mg/L): 5 (% Mycerial growth inhibition of 80% or higher)
- Growth inhibition grade P.o ([12]; 5 mg/L): 5 (% Mycerial growth inhibition of 80% or higher)
- Growth inhibition grade G.f ([13]; 1.25 mg/L): 5 (% Mycerial growth inhibition of 80% or higher)
- Growth inhibition grade G.f ([13]; 5 mg/L): 5 (% Mycerial growth inhibition of 80% or higher)
- Growth inhibition grade A.m ([14]; 1.25 mg/L): 4 (% Mycerial growth inhibition of less than 80 to 60% or higher)
- Growth inhibition grade A.m ([14]; 5 mg/L): 5 (% Mycerial growth inhibition of 80% or higher)
- Growth inhibition grade S.s ([15]; 1.25 mg/L): 5 (% Mycerial growth inhibition of 80% or higher)
- Growth inhibition grade S.s ([15]; 5 mg/L): 5 (% Mycerial growth inhibition of 80% or higher)
- Growth inhibition grade B.c ([16]; 1.25 mg/L): 5 (% Mycerial growth inhibition of 80% or higher)
- Growth inhibition grade B.c ([16]; 5 mg/L): 5 (% Mycerial growth inhibition of 80% or higher)
- Growth inhibition grade F.c ([17]; 1.25 mg/L): 5 (% Mycerial growth inhibition of 80% or higher)
- Growth inhibition grade F.c ([17]; 5 mg/L): 5 (% Mycerial growth inhibition of 80% or higher)
- Growth inhibition grade R. sec ([18]; 1.25 mg/L): 5 (% Mycerial growth inhibition of 80% or higher)
- Growth inhibition grade R. sec ([18]; 5 mg/L): 5 (% Mycerial growth inhibition of 80% or higher)
- Growth inhibition grade M.n ([3]; 1.25 mg/L): 5 (% Mycerial growth inhibition of 80% or higher)
- Growth inhibition grade M.n ([3]; 5 mg/L): 5 (% Mycerial growth inhibition of 80% or higher)
- Growth inhibition grade R.o ([4]; 1.25 mg/L): 5 (% Mycerial growth inhibition of 80% or higher)
- Growth inhibition grade R.o ([4]; 5 mg/L): 5 (% Mycerial growth inhibition of 80% or higher)
- wheat brown rust protective value [5]: 100%

SMILES: CC1(C)OCC2(CCC(Cc3ccc(Cl)cc3)C2(O)Cn2cncn2)CO1 (stereo not drawn) [Compound V′-a-cis, 2-(4-chlorobenzyl)-8,8-dimethyl-1-[1,2,4]triazole-1-ylmethyl-7,9-dioxaspiro[4,5]decane-1-ol]
- inhibition at 1.25 µg/mL [1]: > 80%
- Anti-bacterial effect index against various microorganisms P.n [19]: 5 (% Mycerial growth inhibition of 80% or higher)
- Anti-bacterial effect index against various microorganisms G.g (G.g): 5 (% Mycerial growth inhibition of 80% or higher)
- Anti-bacterial effect index against various microorganisms P.g [20]: 5 (% Mycerial growth inhibition of 80% or higher)
- Anti-bacterial effect index against various microorganisms P.o [21]: 5 (% Mycerial growth inhibition of 80% or higher)
- Anti-bacterial effect index against various microorganisms S.t [22]: 5 (% Mycerial growth inhibition of 80% or higher)
- Anti-bacterial effect index against various microorganisms R. sec [23]: 5 (% Mycerial growth inhibition of 80% or higher)
- Anti-bacterial effect index against various microorganisms M.n [24]: 5 (% Mycerial growth inhibition of 80% or higher)
- Anti-bacterial effect index against various microorganisms R.o [25]: 5 (% Mycerial growth inhibition of 80% or higher)

SMILES: OC1(Cn2cncn2)C(Cc2ccc(Cl)cc2)CCC12COCOC2 (stereo not shown) [Compound V′-d, 2-(4-chlorobenzyl)-1-(1H-1,2,4-triazole-1-ylmethyl)-7,9-dioxaspiro[4,5]decane-1-ol]
- Protective value [2]: 4 (61 to 80)
- wheat brown rust protective value [5]: 100%
- Anti-bacterial effect index against various microorganisms P.n [19]: 5 (% Mycerial growth inhibition of 80% or higher)
- Anti-bacterial effect index against various microorganisms G.g (G.g): 5 (% Mycerial growth inhibition of 80% or higher)
- Anti-bacterial effect index against various microorganisms P.g [20]: 5 (% Mycerial growth inhibition of 80% or higher)
- Anti-bacterial effect index against various microorganisms P.o [21]: 5 (% Mycerial growth inhibition of 80% or higher)
- Anti-bacterial effect index against various microorganisms S.t [22]: 4 (% Mycerial growth inhibition of less than 80 to 60% or higher)
- Anti-bacterial effect index against various microorganisms R. sec [23]: 5 (% Mycerial growth inhibition of 80% or higher)
- Anti-bacterial effect index against various microorganisms M.n [24]: 3 (% Mycerial growth inhibition of less than 60 to 40% or higher)
- Anti-bacterial effect index against various microorganisms R.o [25]: 5 (% Mycerial growth inhibition of 80% or higher)

SMILES: CC1OCC2(CCC(Cc3ccc(Cl)cc3)C2(O)Cn2cncn2)CO1 (stereo not shown) [Compound V′-e, 2-(4-chlorobenzyl)-8-methyl-1-(1H-1,2,4-triazole-1-ylmethyl)-7,9-dioxaspiro[4,5]decane-1-ol]
- inhibition at 1.25 µg/mL [1]: > 80%
- wheat brown rust protective value [5]: 100%
- Anti-bacterial effect index against various microorganisms P.n [19]: 5 (% Mycerial growth inhibition of 80% or higher)
- Anti-bacterial effect index against various microorganisms G.g (G.g): 5 (% Mycerial growth inhibition of 80% or higher)
- Anti-bacterial effect index against various microorganisms P.g [20]: 5 (% Mycerial growth inhibition of 80% or higher)
- Anti-bacterial effect index against various microorganisms P.o [21]: 5 (% Mycerial growth inhibition of 80% or higher)
- Anti-bacterial effect index against various microorganisms S.t [22]: 5 (% Mycerial growth inhibition of 80% or higher)
- Anti-bacterial effect index against various microorganisms R. sec [23]: 5 (% Mycerial growth inhibition of 80% or higher)
- Anti-bacterial effect index against various microorganisms M.n [24]: 5 (% Mycerial growth inhibition of 80% or higher)
- Anti-bacterial effect index against various microorganisms R.o [25]: 5 (% Mycerial growth inhibition of 80% or higher)
